Experimental data published in article PMC10258794, “To Fold or Not to Fold: Diastereomeric Optimization of an α-Helical Antimicrobial Peptide” (Journal of Medicinal Chemistry, 2023).
≈ marks a conversion by molar mass, not a printed value. Where two headings read alike, the source gives them in different places. Positions of bridges follow the written chain, without caps; N, C: chain ends. Non-standard residues stand in square brackets, D forms with d. Residues, ends and D or L forms follow the SMILES beside them. *: point of attachment. Heptanoyl(6-Me) = CC(C)CCCCC(=O)*; dDab = NCC[C@@H](N)C(=O)O; Dab = NCC[C@H](N)C(=O)O

Tests used:
P. aeruginosa PAO1 = system: P. aeruginosa PAO1
Experimental: (§1) Antimicrobial activity was determined for all peptides on E. coli W3110, P. aeruginosa PAO1, A. baumannii ATCC19606, K. pneumoniae NCTC418, and methicillin-resistant S. aureus COL and for selected peptides on P. aeruginosa PA14 and the polymyxin B-resistant derivatives PA14 4.13, PA14 4.18, and PA14 2P4 as well as the clinical isolates ZEM-1A and ZEM9A, K. pneumoniae OXA-48, Enterobacter cloacae, Stenotrophomonas maltophilia, B. cenocepacia, and Staphylococus epidermis. To determine the MIC, the broth microdilution method was used.[75] A single bacterial colony was grown in LB medium overnight at 37 °C and 180 rpm shaking. The compounds were prepared as stock solutions of 2 mg/mL in sterilized milliQ deionized water, added to the first well of 96-well sterile, polypropylene round-bottom microtiter plates (TPP, untreated, Corning Incorporated, Kennebunk, USA), and diluted serially by 1/2. […] The bacterial inoculum was prepared by measuring the absorbance of the overnight culture, which was diluted to concentration of the bacteria was quantified by measuring absorbance at 600 nm and diluted to an OD600 of 0.022 in MH medium pH 7.4 (Sigma-Aldrich, Buchs, Switzerland). The sample solutions (150 μL) were mixed with 4 μL of diluted bacterial suspension with a final inoculation of about 5 × 10^5 CFU. For each test, two columns of the plate were kept for sterility control (MH medium only) and growth control (MH medium with bacterial inoculum, no compound). […] The plates were incubated at 37 °C for 16–20 h under static conditions. 15 μL of 3-(4,5-dimethylthiazol-2-yl)-2,5-diphenyltetrazolium bromide (MTT)[76] (1 mg/mL in sterilized milliQ deionized water) was added to each well, and the plates were incubated at room temperature until MTT staining was completed. The MIC was defined as the lowest concentration of the dendrimer that inhibits the visible growth of the tested bacteria (yellow) with the unaided eye.

A. baumannii ATCC19606 = system: A. baumannii ATCC19606
Experimental: as §1

E. coli W3110 = conditions: MH broth pH 7.4, 16–20 h, 37 °C
Experimental: as §1

K. pneumoniae NCTC418 = system: K. pneumoniae NCTC418
Experimental: as §1

S. aureus COL MRSA = conditions: for MIC S. aureus COL MRSA: MH broth pH 7.4, 16–20 h, 37 °C; for MIC S. aureus COL: supplementary CSV, ranges of Table 1 given as one number
Experimental: as §1

PA14 4.13 (phoQ) = assay: microbe, parasite or virus in culture
Experimental: as §1

PA14 4.18 (pmrB) = assay: microbe, parasite or virus in culture
Experimental: as §1

Burkolderia cenocepacia = assay: microbe, parasite or virus in culture
Experimental: as §1

Enterobacter cloacae = assay: microbe, parasite or virus in culture
Experimental: as §1

P. aeruginosa ZEM-1A = assay: microbe, parasite or virus in culture
Experimental: as §1

P. aeruginosa PA14 = assay: microbe, parasite or virus in culture
Experimental: as §1

PA14 2P4 (pmrB) = assay: microbe, parasite or virus in culture
Experimental: as §1

K. pneumoniae Oxa-48 = assay: MIC broth microdilution, K. pneumoniae Oxa-48; type: cell-based, Klebsiella pneumoniae
Experimental: as §1

[1] = system: Stenotrophomonas maltophilia; assay: microbe, parasite or virus in culture; type: cell-based
Experimental: as §1

Staphylococcus epidermis = assay: MIC broth microdilution, Staphylococcus epidermis; type: cell-based; conditions: pH 7.4
Experimental: as §1

P. aeruginosa ZEM9A = assay: microbe, parasite or virus in culture; type: cell-based, Pseudomonas aeruginosa
Experimental: as §1

[2] = EYPC vesicle leakage assay; type: biochemical; conditions: 10 μg/mL of compound; 10 mM TRIS, 107 mM NaCl, pH 7.4
Experimental: 5(6)-carboxyfluorescein (CF) was purchased from Sigma. EYPC, EYPG, and a Mini-Extruder were purchased from Avanti Polar Lipids. Egg PC or Egg PG thin lipid layers were prepared by evaporating a solution of 100 mg of EYPC or EYPG in 4 mL of MeOH/CHCl3 (1:1) on a rotary evaporator at room temperature and then dried in vacuo overnight. […] Extravesicular components were removed by gel filtration (Sephadex G-50) with 10 mM TRIS, 107 mM NaCl, pH 7.4 buffer. Final conditions: ∼2.5 mM PC or PG; inside: 50 mM CF, 10 mM TRIS, 10 mM NaCl, pH 7.4 buffer; outside: 10 mM TRIS, 107 mM NaCl, pH 7.4. […] The CF efflux was monitored at λem 517 nm (λex 492 nm) as a function of time after addition of the desired volume of peptide from 2 mg/mL stock in mQ water at t = 45 s, 10 and 50 μg/mL were monitored for both EYPC and EYPG. […] Fluorescence intensities were then normalized to the maximal emission intensity using I(t) = (It – I0)/(I∞ – I0) where I0 = It at peptide addition, I∞ = It at saturation of lysis.

[3] = MH broth pH 7.4, 16–20 h, 37 °C
[4] = supplementary CSV, ranges of Table 1 given as one number
[5] = MDR strain, MH broth pH 7.4, 16–20 h, 37 °C

CC(C)C[C@H](NC(=O)[C@H](CC(C)C)NC(=O)[C@H](CC(C)C)NC(=O)[C@H](CCCCN)NC(=O)[C@H](CC(C)C)NC(=O)[C@H](CC(C)C)NC(=O)[C@H](CCCCN)NC(=O)[C@H](CC(C)C)NC(=O)[C@H](CC(C)C)NC(=O)[C@@H](CCCCN)NC(=O)[C@H](N)CCCCN)C(N)=O [HP2]
MIC P. aeruginosa PAO1 (P. aeruginosa PAO1; [3]): 4 µg/mL (≈ 3.03 µM)
MIC P. aeruginosa PAO1 (P. aeruginosa PAO1; [4]): 4 µg/mL (≈ 3.03 µM)
MIC A. baumannii ATCC19606 (A. baumannii ATCC19606; [3]): 4 µg/mL (≈ 3.03 µM)
MIC A. baumannii ATCC19606 (A. baumannii ATCC19606; [4]): 4 µg/mL (≈ 3.03 µM)
MIC E. coli W3110 (E. coli W3110): 4 µg/mL (≈ 3.03 µM)
MIC K. pneumoniae NCTC418 (K. pneumoniae NCTC418; [3]): 2 to 4 µg/mL
MIC K. pneumoniae NCTC418 (K. pneumoniae NCTC418; [4]): 3 µg/mL (≈ 2.27 µM)
MIC S. aureus COL MRSA (S. aureus COL MRSA): 4 µg/mL (≈ 3.03 µM)
MIC S. aureus COL (S. aureus COL MRSA): 4 µg/mL (≈ 3.03 µM)
MIC P. aeruginosa PA14 4.13 (PA14 4.13 (phoQ); supplementary CSV): 4 µg/mL (≈ 3.03 µM)
MIC P. aeruginosa PA14 4.18 (PA14 4.18 (pmrB); supplementary CSV): 32 µg/mL (≈ 24.2 µM)
MIC Burkolderia cenocepacia (Burkolderia cenocepacia; [5]): >64 µg/mL
MIC Enterobacter cloacae (Enterobacter cloacae; pH 7.4): 2 µg/mL (≈ 1.51 µM)
MIC ZEM-1A (P. aeruginosa ZEM-1A; pH 7.4): 2 µg/mL (≈ 1.51 µM)
MIC PA14 (P. aeruginosa PA14; [3]): 2 µg/mL (≈ 1.51 µM)
MIC P. aeruginosa PA14 (P. aeruginosa PA14; supplementary CSV): 2 µg/mL (≈ 1.51 µM)
MIC P. aeruginosaPA14 2P4 (PA14 2P4 (pmrB); supplementary CSV): 64 µg/mL (≈ 48.4 µM)
MIC S. aureus Newman (S. aureus Newman; [3]): 2 µg/mL (≈ 1.51 µM)
MIC S. aureus Newmann (S. aureus Newman; supplementary CSV): 2 µg/mL (≈ 1.51 µM)
MIC K. pneumoniae Oxa-48 (K. pneumoniae Oxa-48; [5]): 2 µg/mL (≈ 1.51 µM)
MIC Stenotrophomonas maltophilia ([1]; pH 7.4): 2 µg/mL (≈ 1.51 µM)
MIC Staphylococcus epidermis (Staphylococcus epidermis): 2 µg/mL (≈ 1.51 µM)
MIC ZEM9A (P. aeruginosa ZEM9A; pH 7.4): 4 µg/mL (≈ 3.03 µM)

CC(C)C[C@H](NC(=O)[C@H](CC(C)C)NC(=O)[C@H](CC(C)C)NC(=O)[C@@H](CCCCN)NC(=O)[C@@H](CC(C)C)NC(=O)[C@@H](CC(C)C)NC(=O)[C@@H](CCCCN)NC(=O)[C@@H](CC(C)C)NC(=O)[C@H](CC(C)C)NC(=O)[C@H](CCCCN)NC(=O)[C@@H](N)CCCCN)C(N)=O [HP29, KKLlkllkLLL]
MIC P. aeruginosa PAO1 (P. aeruginosa PAO1; [3]): 4 µg/mL (≈ 3.03 µM)
MIC P. aeruginosa PAO1 (P. aeruginosa PAO1; [4]): 4 µg/mL (≈ 3.03 µM)
MIC A. baumannii ATCC19606 (A. baumannii ATCC19606; [3]): 8 µg/mL (≈ 6.05 µM)
MIC A. baumannii ATCC19606 (A. baumannii ATCC19606; [4]): 8 µg/mL (≈ 6.05 µM)
MIC E. coli W3110 (E. coli W3110): 2 µg/mL (≈ 1.51 µM)
MIC K. pneumoniae NCTC418 (K. pneumoniae NCTC418; [3]): 64 µg/mL (≈ 48.4 µM)
MIC K. pneumoniae NCTC418 (K. pneumoniae NCTC418; [4]): 64 µg/mL (≈ 48.4 µM)
MIC S. aureus COL MRSA (S. aureus COL MRSA): 32 µg/mL (≈ 24.2 µM)
MIC S. aureus COL (S. aureus COL MRSA): 32 µg/mL (≈ 24.2 µM)
EYPC vesicle leakage (%) [2]: 6%

CC(C)CCCCC(=O)N[C@@H](CCN)C(=O)N[C@H](C(=O)N[C@@H](CCN)C(=O)N[C@H]1CCNC(=O)[C@H]([C@@H](C)O)NC(=O)[C@H](CCN)NC(=O)[C@H](CCN)NC(=O)[C@H](CC(C)C)NC(=O)[C@@H](Cc2ccccc2)NC(=O)[C@@H](CCN)NC1=O)[C@@H](C)O [Pol B, polymyxin B, reference compound] ({Heptanoyl(6-Me)}-[Dab]T[Dab][Dab][dDab][dF]L[Dab][Dab]T; lactam 4-C)
MIC (PA14 4.13 (phoQ); Pseudomonas aeruginosa, PA14, pH 7.4, read-out: MIC PA14 4.13 (phoQ)): 0.25 µg/mL (≈ 0.21 µM)
MIC (PA14 4.18 (pmrB); Pseudomonas aeruginosa, PA14, pH 7.4, read-out: MIC PA14 4.18 (pmrB)): 1 µg/mL (≈ 0.841 µM)
MIC (Burkolderia cenocepacia; Burkholderia cenocepacia, pH 7.4, read-out: MIC Burkolderia cenocepacia): > 16 µg/mL
MIC (Enterobacter cloacae; Enterobacter cloacae, pH 7.4, read-out: MIC Enterobacter cloacae): 1 µg/mL (≈ 0.841 µM)
MIC (P. aeruginosa ZEM-1A; Pseudomonas aeruginosa, ZEM1A, pH 7.4, read-out: MIC ZEM-1A): < 0.125 µg/mL
MIC (P. aeruginosa PA14; Pseudomonas aeruginosa, PA14, pH 7.4, read-out: MIC PA14): < 0.125 µg/mL
MIC (PA14 2P4 (pmrB); Pseudomonas aeruginosa, PA14, pH 7.4, read-out: MIC PA14 2P4 (pmrB)): 1 µg/mL (≈ 0.841 µM)
MIC (K. pneumoniae Oxa-48; Klebsiella pneumoniae, OXA48, pH 7.4, read-out: MIC K. pneumoniae Oxa-48): 2 µg/mL (≈ 1.68 µM)
MIC ([1]; Stenotrophomonas maltophilia, MDR strain, MH broth pH 7.4, 16–20 h, 37 °C): 0.5 µg/mL (≈ 0.42 µM)
MIC (P. aeruginosa ZEM9A; Pseudomonas aeruginosa, ZEM9A, MDR strain, MH broth pH 7.4, 16–20 h, 37 °C): 2 µg/mL (≈ 1.68 µM)
